Assay results as given in patent publication US20220170028A1, “NOVEL INTERLEUKIN-2 VARIANTS AND BIFUNCTIONAL FUSION MOLECULES THEREOF” (Cugene Inc, priority 2019, published 2022).
Entries after “also recorded” stand apart in the source; their conditions may differ.

Columns and labels:
[1] = test system: STAT5 phosphorylation in CD4+ Tconv cells; test: STAT5 phosphorylation in CD4+ Tconv cells, human PBMC assay by FACS; type: cell-based
Text: (§1) Single amino acid substitutions were introduced to IL-2 at positions corresponding to amino acids interacting with receptor subunit(s) β or γ or βγ. These substitutions were aimed to reduce IL-2 signaling capacity through the intermediate affinity IL-2Rβγ complex and confer signaling specificity from the high affinity IL-2Rαβγ. IL-2 variants containing single amino acid substitutions were examined for their ability to differentially stimulate STAT5 phosphorylation in CD4 positive Treg and Tconv cells. STAT5 is known to be involved in the downstream signaling cascade upon IL-2 binding to the transmembrane IL-2 receptors. The phosphorylation of STAT5 in defined lymphocyte subpopulations was measured using fresh human peripheral blood mononuclear cells (PBMC) and the forkhead transcription factor FOXP3 was used to identify the Treg population in FACS analysis.
(§2) Briefly, human PBMC were isolated by Ficoll-Hypaque centrifugation from the buffy coat of a healthy donor. PBMC were starved in serum-free MACS buffer at 4° C. for 1 hour. 2×10^5 PBMC were then treated with serial dilutions of test compounds for 30 min at 37° C. Cells were fixed and permeabilized with Foxp3/Transcription Factor Staining Buffer Set (EBIO) by incubating with 1× Foxp3 fixation/permeabilization working solution for 30 minutes and washing with 1× permeabilization buffer. Cells were additionally fixed with Cytofix buffer and permeabilized with Perm Buffer III (BD Biosciences) and then washed. After blocking Fc receptors by adding human TruStain FcX (1:50 dilution), cells were stained with a mixture of anti-CD25-PE, anti-FOXP3-APC, anti-pSTAT5-FITC, and anti-CD4-PerCP-Cy5.5 antibodies at concentrations recommended by the manufacturer for 45 minutes at room temperature. Cells were collected by centrifugation, washed, resuspended in FACS buffer, and analyzed by flow cytometry. The flow cytometry data was gated into CD4+/Foxp3+/CD25^high and CD4+/Foxp3−/CD25^low groups for the Treg and CD4 conventional T cell subsets, respectively. Data are expressed as a percent of pStat5 positive cells in gated population.

[2] = test system: STAT5 phosphorylation in CD4+ Treg cells; test: STAT5 phosphorylation in CD4+ Treg cells, human PBMC assay by FACS; type: cell-based
Text: as §1, §2

[3] = Aggregate content by size-exclusion chromatography after Protein A purification; type: physicochemical; settings: for aggregates / high-molecular weight species (SEC): Example 4; for Aggregation % (SEC): after MabSelectSure
Description: For affinity chromatography each supernatant was loaded on a HiTrap MabSelectSure column (CV=5 mL, GE Healthcare) equilibrated with 25 ml phosphate buffered saline, pH 7.2 (ThermoFisher). Unbound protein was removed by washing with 5 column volumes PBS, pH 7.2 and target protein was eluted with 25 mM sodium citrate, 25 mM sodium chloride, pH 3.2. Protein solution was neutralized by adding 3% of 1 M Tris pH 10.2. Ion exchange chromatography or mix-mode chromatography, including but not limited to CaptoMMC (GE Healthcare), ceramic hydroxyapatite, or ceramic fluoroapatite (Bio-Rad) was also utilized to polish the Protein A material as needed. Target protein was concentrated with an Amicon®Ultra-15 concentrator 10 KDa NMWC (Merck Millipore Ltd.)
The purity and molecular weight of the purified constructs were analyzed by SDS-PAGE with and in the absence of a reducing agent and staining with Coomassie (Imperial® Stain). The NuPAGE® Pre-Cast gel system (4-12% or 8-16% Bis-Tris, ThermoFisher) was used according to the manufacturer's instructions. The protein concentration of purified protein samples was determined by measuring the UV absorbance at 280 nm (Nanodrop Spectrophotometer, ThermoFisher) divided by the molar extinction coefficient calculated on the basis of the amino acid sequence. The aggregate content of the constructs was analyzed on an Agilent 1200 high-performance liquid chromatography (HPLC) system. Samples were injected onto an AdvanceBio size-exclusion column (300 Å, 4.6×150 mm, 2.7 μm, LC column, Agilent) using 150 mM sodium phosphate, pH 7.0 as the mobile phase at 25° C.
(§3) S125I substitution was thus introduced into a number of IL-2 variant Fc fusion molecules. The constructs harboring Ile-125 substitution in IL-2 were expressed using the same vector and in the same culturing conditions as their Ser-125 counterparts and purified using MabSelectSure. The expression level in mg/L and purity assessed by SEC chromatography in aggregation % of exemplary molecules are summarized in Table 6. The two molecules in the same row of Table 6 share the same other amino acid substitution(s) and differ only at residue 125 with either serine or isoleucine. As an example, the SEC chromatogram and SDS-PAGE pictures of P-0447 (SEQ ID NO: 173) and its Ile-125 counterpart P-0511 (SEQ ID NO: 213) were further illustrated in FIGS. 1D and 1E.

[4] = test system: CD4+ Treg vs CD4+ Tconv cells; test: STAT5 phosphorylation, selectivity / activity profile Treg versus CD4+ Tconv cells, human PBMC; type: cell-based
Text: as §1, §2
The S125I substitution was then introduced into wild-type IL-2 or IL-2 variants that already harbored 1 or 2 mutations targeting receptor subunit(s) β or γ or βγ. The resulting IL-2 variants containing isoleucine at position 125 were tested for their ability to stimulate STAT5 phosphorylation in Treg and Tconv cells in comparison with their respective serine counterparts at position 125. Table 7 lists the potency and selectivity of IL-2 variants in Treg cells. The two molecules in the same row of Table 7 share the same other amino acid substitution(s) and differ only at position 125 with either serine or isoleucine.

[5] = Transient expression level of IL-2 Fc fusion constructs in HEK-293F cells; settings: for expression level (titer): transiently in HEK-293F cells, Example 4
Description: The constructs were produced by co-transfecting HEK293-F cells growing in suspension with the mammalian expression vectors using polyethylenimine (PEI, 25,000 MW linear, Polysciences). If there were two or more expression vectors, the vectors were transfected in a 1:1 ratio. For transfection, HEK293 cells were cultivated in serum free FreeStyle™ 293 Expression Medium (ThermoFisher). For production in 1000 ml shaking flasks (working volume 330 mL), HEK293 cells were seeded at a density of 0.8×10^6 cells/ml 24 hours before transfection. A total of 330 μg of DNA expression vectors were mixed with 16.7 ml Opti-mem Medium (ThermoFisher). After addition of 0.33 mg PEI diluted in 16.7 ml Opti-mem Medium, the mixture was vortexed for 15 sec and subsequently incubated for 10 min at room temperature. The DNA/PEI solution was then added to the cells and incubated at 37° C. in an incubator with 8% CO2. Sodium butyrate (Millipore Sigma) was added to the cells at day 4 at a final concentration of […] to help sustain protein expression. After 6 days cultivation, supernatant was collected for purification by centrifugation for 20 min at 2200 rpm. The solution was sterile filtered (0.22 μm filter, Corning). The secreted protein was purified from cell culture supernatants using Protein A affinity chromatography.
as §3

Substance	STAT5 phosphorylation activity in CD4+ Tconv cells (in words) [1]	STAT5 phosphorylation activity in Treg cells (in words) [2]	activity profile / selectivity window Treg over CD4+ Tconv (in words) [4]	further results
P-0366: IL-2 D20Q Fc fusion, SEQ ID NO: 77	largely diminished or abolished	ability to induce STAT5 phosphorylation	–	–
P-0471: IL-2 L19Y/S125I Fc fusion, SEQ ID NO: 183	varied significantly	retained comparable potency	–	aggregates / high-molecular weight species (SEC) [3]: 1%; Aggregation % (SEC) ([3]; Isoleucine-125 constructs): 1.0%; Treg Selectivity ([4]; Isoleucine-125 constructs): Yes; Expression ([5]; Isoleucine-125 constructs): 19.3 mg/L; expression level (titer) [5]: 19.3 mg/L
P-0694: Tocilizumab IL-2 L19H/S125I/Q126D bivalent fusion, SEQ ID NOs 253 + 308	essentially abolished	reduced potency	wide selectivity window	–
P-0363: IL-2 D20T Fc fusion, SEQ ID NO: 74	largely diminished or abolished	ability to induce STAT5 phosphorylation	some or significant biased selective window	Aggregation % (SEC) ([3]; Serine-125 constructs): 29.4%; Expression ([5]; Serine-125 constructs): 1.4 mg/L
P-0559: Tocilizumab IL-2 D20Q/S125I bivalent fusion, SEQ ID NOs 253 + 265	essentially abolished	reduced potency	selective activation of Treg cells over CD4+ Tconv cells	–
P-0373: IL-2 L19N Fc fusion, SEQ ID NO: 82	reduced	–	wide window for selective targeting of Treg subset; also recorded: some or significant biased selective window	–
P-0365: IL-2 D20N Fc fusion, SEQ ID NO: 76	largely diminished or abolished	ability to induce STAT5 phosphorylation	–	–
P-0494: IL-2 D20T/S125I Fc fusion, SEQ ID NO: 193	–	–	–	Aggregation % (SEC) ([3]; Isoleucine-125 constructs): 0.5%; Expression ([5]; Isoleucine-125 constructs): 11.7 mg/L
P-0491: IL-2 L19H/S125I Fc fusion, SEQ ID NO: 190	–	slightly increased potency	without altering Treg selectivity	Aggregation % (SEC) ([3]; Isoleucine-125 constructs): 0.6%; Treg Selectivity ([4]; Isoleucine-125 constructs): Yes; Expression ([5]; Isoleucine-125 constructs): 36.7 mg/L
P-0367: IL-2 D20S Fc fusion, SEQ ID NO: 78	largely diminished or abolished	ability to induce STAT5 phosphorylation	–	–
P-0368: IL-2 D20Y Fc fusion, SEQ ID NO: 79	no biological activity	no biological activity	–	–
P-0495: IL-2 L19Y/S125I/Q126E Fc fusion, SEQ ID NO: 194	–	–	–	Aggregation % (SEC) ([3]; Isoleucine-125 constructs): 0.8%; Treg Selectivity ([4]; Isoleucine-125 constructs): Yes; Expression ([5]; Isoleucine-125 constructs): 23.5 mg/L
P-0317: IL-2 D20I/N88R Fc fusion, SEQ ID NO: 96	–	–	–	aggregates / high-molecular weight species (SEC) [3]: 7.5%; expression level (titer) [5]: similarly low level
P-0492: IL-2 L19D/S125I Fc fusion, SEQ ID NO: 191	–	–	–	Aggregation % (SEC) ([3]; Isoleucine-125 constructs): 0%; Treg Selectivity ([4]; Isoleucine-125 constructs): Yes; Expression ([5]; Isoleucine-125 constructs): 13.6 mg/L
P-0464: IL-2 L19Y/Q126K Fc fusion, SEQ ID NO: 176	varied significantly	retained comparable potency	–	–
P-0474: IL-2 L19Y/Q22K Fc fusion, SEQ ID NO: 186	varied significantly	retained comparable potency	–	–
P-0449: IL-2 L19S/Q126E Fc fusion, SEQ ID NO: 175	largely abolished	significant potency	on par with Benchmark-2	–
P-0424: IL-2 L19H Fc fusion, SEQ ID NO: 153	reduced	–	selective activation of Treg cells over CD4+ Tconv cells	Aggregation % (SEC) ([3]; Serine-125 constructs): 21.4%; Treg Selectivity ([4]; Serine-125 constructs): Yes; Expression ([5]; Serine-125 constructs): 7.7 mg/L
P-0250: wild type IL-2 Fc fusion protein, C-terminal fusion, SEQ ID NO: 71 [reference compound]	–	–	–	Aggregation % (SEC) ([3]; Serine-125 constructs): 25.7%; potency in Treg cells relative to CD4+ Tconv cells [4]: about 250 fold; Treg Selectivity ([4]; Serine-125 constructs): Yes; Expression ([5]; Serine-125 constructs): 3.1 mg/L; expression level (titer) [5]: around 3 mg/L
P-0493: IL-2 D20E/S125I Fc fusion, SEQ ID NO: 192	–	–	–	Aggregation % (SEC) ([3]; Isoleucine-125 constructs): 1.7%; Treg Selectivity ([4]; Isoleucine-125 constructs): Yes; Expression ([5]; Isoleucine-125 constructs): 7.9 mg/L
P-0318: IL-2 D20I/N88I Fc fusion, SEQ ID NO: 97	–	–	–	aggregates / high-molecular weight species (SEC) [3]: 65%; expression level (titer) [5]: similarly low level
P-0448: IL-2 L19Q/Q126E Fc fusion, SEQ ID NO: 174	largely abolished	significant potency	on par with Benchmark-2	–
